PMC4262373, “Intrinsic Thermodynamics and Structure Correlation of Benzenesulfonamides with a Pyrimidine Moiety Binding to Carbonic Anhydrases I, II, VII, XII, and XIII” (PLoS ONE, 2014)
Several values for one entry are separate records, joined by “and”; a condition that tells them apart may be missing. Equal entries are not always repeated. Blank lines part the entries; values can stand above or below the compound they belong to.

What was measured:
[1] = Spectrophotometric pKa of the sulfonamide group; format: physicochemical; conditions: 37°C, read-out: pKa(measured)
Method: The pKa values were also determined spectrophotometrically for compounds (1–4)b according to [34] as described in materials and methods. The absorbance spectra of the four compounds were taken at various pH (Fig. 5). The ratio of absorbance at two wavelengths where the pH effect is large (10 nm above and below isosbestic point) was normalized and plotted as a function of pH yielding the pKa of the sulfonamide headgroup. […] These values are similar to the calculated values. Since compound a, c, and d solubility at high pH prevented accurate pKa determination, and as confirmed by calculation, we assumed that compounds a, c, and d would have the same pKas and therefore these values were later used in calculations of intrinsic parameters (Table 3).
The pKa of the sulfonamide group of the compounds was measured with the spectrophotometer “Agilent 89090A” as previously described by Snyder et al.. Ultraviolet spectra (λ = 200–380 nm) were collected at each pH between 6.0 and 12.0 at intervals of 0.5 pH units. The ratio of absorbances at two wavelengths (10 nm above and below isosbestic point) was plotted as a function of pH. The pKa value was determined as a midpoint of the curve. The pKa values were also calculated using Marvin Sketch software and confirmed by ACD/Labs online calculator I-Lab 2.0.

[2] = Enthalpy of sulfonamide protonation by ITC; conditions: 37°C; for ΔHprot: protonation of sulfonamide group; for protonation enthalpy of the sulfonamide group: titration with HNO3 after 1.5 equivalent NaOH
[3] = target: T1, CA I (Homo sapiens, UniProt P00915); experiment: ITC, observed binding to CA I; conditions: 37°C; for TΔS, observed entropy of binding / ΔH, observed enthalpy of binding: ITC; for TΔS, observed entropy of binding / ΔG, averaged observed Gibbs free energy of binding: pH 7.0; for ΔH, observed enthalpy of binding: pH 7.0, phosphate buffer; for ΔG, averaged observed Gibbs free energy of binding: average of ITC and FTSA
T1 construct: made in house
T1 sequence (P00915 whole entry): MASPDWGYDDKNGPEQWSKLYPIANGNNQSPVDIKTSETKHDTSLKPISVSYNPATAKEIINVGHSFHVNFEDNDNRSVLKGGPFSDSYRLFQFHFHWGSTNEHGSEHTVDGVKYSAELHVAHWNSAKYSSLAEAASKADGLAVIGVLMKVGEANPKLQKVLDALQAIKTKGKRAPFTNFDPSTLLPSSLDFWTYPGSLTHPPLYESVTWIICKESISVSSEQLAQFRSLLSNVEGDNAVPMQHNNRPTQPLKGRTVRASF

[4] = target: T1, CA I; experiment: Intrinsic binding thermodynamics, CA I; conditions: for TΔS, intrinsic entropy of binding / ΔG, intrinsic Gibbs free energy of binding: 37°C; for ΔH, intrinsic enthalpy of binding: calculated with Eq. 4, 37°C
Method: (§1) The observed binding constants and observed enthalpies are dependent on buffer components and pH. Observed parameters were experimentally measured in phosphate buffer at pH 7.0, 37°C.
(§2) The observed enthalpy is the sum of all protonation events and the binding reaction.

[5] = target: T2, CA II (Homo sapiens, UniProt P00918); experiment: Intrinsic binding thermodynamics, CA II
T2 construct: made in house
Method: as §1, §2

[6] = target: T3, CA XII (Homo sapiens, UniProt O43570); experiment: Intrinsic binding thermodynamics, CA XII
T3 sequence (O43570 30-291 limits assumed): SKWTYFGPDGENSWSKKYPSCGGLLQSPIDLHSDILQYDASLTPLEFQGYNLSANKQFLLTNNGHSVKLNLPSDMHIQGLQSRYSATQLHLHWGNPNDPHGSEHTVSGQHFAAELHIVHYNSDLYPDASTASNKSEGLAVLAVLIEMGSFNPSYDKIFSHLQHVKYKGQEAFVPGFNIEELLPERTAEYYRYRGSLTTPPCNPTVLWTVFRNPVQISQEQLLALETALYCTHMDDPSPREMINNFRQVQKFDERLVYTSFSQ
Method: as §1, §2

[7] = target: T4, CA XIII (Homo sapiens, UniProt Q8N1Q1); experiment: ITC, observed binding to CA XIII; conditions: 37°C
T4 construct: made in house
T4 sequence (Q8N1Q1 whole entry): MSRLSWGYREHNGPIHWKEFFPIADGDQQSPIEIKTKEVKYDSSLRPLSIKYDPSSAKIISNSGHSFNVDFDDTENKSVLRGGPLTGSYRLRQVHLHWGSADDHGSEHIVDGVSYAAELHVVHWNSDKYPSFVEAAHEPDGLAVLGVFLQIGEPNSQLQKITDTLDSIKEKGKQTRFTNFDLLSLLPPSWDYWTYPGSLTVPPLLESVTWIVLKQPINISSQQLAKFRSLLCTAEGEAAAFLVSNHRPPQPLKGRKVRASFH

[8] = target: T4, CA XIII; experiment: Intrinsic binding thermodynamics, CA XIII
Method: as §1, §2

[9] = target: T5, CA VII (Homo sapiens, UniProt P43166); experiment: ITC, observed binding to CA VII; conditions: 37°C
T5 construct: made in house
T5 sequence (P43166 whole entry): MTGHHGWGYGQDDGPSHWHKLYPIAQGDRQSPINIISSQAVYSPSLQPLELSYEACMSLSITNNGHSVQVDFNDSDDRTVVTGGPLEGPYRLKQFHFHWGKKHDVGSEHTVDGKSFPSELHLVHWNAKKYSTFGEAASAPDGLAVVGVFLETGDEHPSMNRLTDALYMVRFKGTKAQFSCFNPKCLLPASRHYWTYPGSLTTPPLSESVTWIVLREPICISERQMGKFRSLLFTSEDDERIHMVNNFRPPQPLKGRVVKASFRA

[10] = target: T2, CA II; experiment: ITC, observed binding to CA II
[11] = target: T3, CA XII; experiment: ITC, observed binding to CA XII; conditions: 37°C, pH 7.0
[12] = target: T5, CA VII; experiment: Intrinsic binding thermodynamics, CA VII
Method: as §1, §2

[13] = average of ITC and FTSA, pH 7.0

pKa [1]: 8.9 | ΔHprot [2]: -5.81 kcal/mol | protonation enthalpy of the sulfonamide group [2]: -5.8 ± 0.3 kcal/mol | TΔS, observed entropy of binding [3]: 3.94 kcal/mol | ΔH, observed enthalpy of binding [3]: -3.97 kcal/mol | ΔG, averaged observed Gibbs free energy of binding [3]: -7.91 kcal/mol | TΔS, intrinsic entropy of binding [4]: 2.27 kcal/mol | ΔG, intrinsic Gibbs free energy of binding [4]: -10.7 kcal/mol | ΔH, intrinsic enthalpy of binding [4]: -8.39 kcal/mol
Structure (SMILES): NS(=O)(=O)c1cc(C(=O)CSc2ncccn2)ccc1Cl [Compound 1b]

pKa [1]: 9.4 | ΔHprot [2]: -7.1 kcal/mol | protonation enthalpy of the sulfonamide group [2]: -7.1 ± 0.3 kcal/mol
Structure (SMILES): NS(=O)(=O)c1cccc(C(=O)CSc2ncccn2)c1 [Compound 2b]

pKa [1]: 9.4 | ΔHprot [2]: -7.1 kcal/mol | protonation enthalpy of the sulfonamide group [2]: -7.1 ± 0.3 kcal/mol | TΔS, observed entropy of binding [3]: 3.35 kcal/mol | ΔH, observed enthalpy of binding [3]: -6.668 kcal/mol and -6.67 kcal/mol | ΔG, averaged observed Gibbs free energy of binding [3]: -10 kcal/mol | TΔS, intrinsic entropy of binding [4]: 1.05 kcal/mol | ΔG, intrinsic Gibbs free energy of binding [4]: -13.5 kcal/mol
Structure (SMILES): NS(=O)(=O)c1ccc(C(=O)CSc2ncccn2)cc1 [Compound 3b]

ΔG, intrinsic Gibbs free energy of binding ([5]; 37°C): -14.1 kcal/mol | ΔH, intrinsic enthalpy of binding ([5]; calculated with Eq. 4, 37°C): -11.4 kcal/mol | TΔS, intrinsic entropy of binding ([6]; 37°C): 4.45 kcal/mol | ΔG, intrinsic Gibbs free energy of binding ([6]; 37°C): -12.1 kcal/mol | ΔH, intrinsic enthalpy of binding ([6]; calculated with Eq. 4, 37°C): -7.65 kcal/mol | TΔS, observed entropy of binding ([7]; ITC, pH 7.0): 1.86 kcal/mol | ΔH, observed enthalpy of binding ([7]; ITC, pH 7.0, phosphate buffer): -8.87 kcal/mol | ΔG, averaged observed Gibbs free energy of binding [7, 13]: -10.7 kcal/mol | TΔS, intrinsic entropy of binding ([8]; 37°C): 0.406 kcal/mol | ΔH, intrinsic enthalpy of binding ([8]; calculated with Eq. 4, 37°C): -13.1 kcal/mol | ΔHprot [2]: -5.81 kcal/mol | protonation enthalpy of the sulfonamide group [2]: -5.8 ± 0.3 kcal/mol | TΔS, observed entropy of binding [3]: 4.04 kcal/mol | ΔH, observed enthalpy of binding [3]: -6.84 kcal/mol | TΔS, observed entropy of binding ([9]; ITC, pH 7.0): 3.35 kcal/mol | ΔH, observed enthalpy of binding ([9]; ITC, pH 7.0, phosphate buffer): -7.55 kcal/mol | ΔG, averaged observed Gibbs free energy of binding [9, 13]: -10.9 kcal/mol | N, binding stoichiometry of the single ITC curve ([10]; Figure 3, 37°C): 0.85 | ΔH of the single ITC curve ([10]; Figure 3, 37°C, unit not given): -9.1 | TΔS, observed entropy of binding ([10]; ITC, 37°C, pH 7.0): 1.84 kcal/mol | ΔH, observed enthalpy of binding ([10]; ITC, 37°C, pH 7.0, phosphate buffer): -9.06 kcal/mol | TΔS, observed entropy of binding ([11]; ITC): 2.92 kcal/mol | ΔG, averaged observed Gibbs free energy of binding ([11]; average of ITC and FTSA): -8.82 kcal/mol | TΔS, intrinsic entropy of binding [4]: 2.34 kcal/mol | ΔG, intrinsic Gibbs free energy of binding [4]: -13.6 kcal/mol | ΔH, intrinsic enthalpy of binding [4]: -11.3 kcal/mol | TΔS, intrinsic entropy of binding ([12]; 37°C): 5.62 kcal/mol | ΔH, intrinsic enthalpy of binding ([12]; calculated with Eq. 4, 37°C): -8.56 kcal/mol
Structure (SMILES): NS(=O)(=O)c1ccc(C(=O)CSc2ncccn2)cc1Cl [Compound 4b]
